Measurements as given in patent US20150051242A1, “RAFAMYCIN ANALOGS AND METHODS FOR MAKING SAME” (HANGZHOU ZYLOX PHARMA CO., LTD, priority 2012, published 2015).

What was measured:
[1] = molecular target: T1, mTOR (Homo sapiens, UniProt P42345+P62942); assay: mTOR TR-FRET kinase assay (phosphorylation of GFP-4E-BP1); assay type: biochemical; details: 10 μM ATP, 0.4 μM GFP-4E-BP1, read-out: IC50 mTOR inhibition
T1 construct: purchased Invitrogen (mTOR); SinoBiological (FKBP12) PV4753 (mTOR); 10268-H08E (FKBP12)
T1 sequence (P42345 1360-2549 limits assumed): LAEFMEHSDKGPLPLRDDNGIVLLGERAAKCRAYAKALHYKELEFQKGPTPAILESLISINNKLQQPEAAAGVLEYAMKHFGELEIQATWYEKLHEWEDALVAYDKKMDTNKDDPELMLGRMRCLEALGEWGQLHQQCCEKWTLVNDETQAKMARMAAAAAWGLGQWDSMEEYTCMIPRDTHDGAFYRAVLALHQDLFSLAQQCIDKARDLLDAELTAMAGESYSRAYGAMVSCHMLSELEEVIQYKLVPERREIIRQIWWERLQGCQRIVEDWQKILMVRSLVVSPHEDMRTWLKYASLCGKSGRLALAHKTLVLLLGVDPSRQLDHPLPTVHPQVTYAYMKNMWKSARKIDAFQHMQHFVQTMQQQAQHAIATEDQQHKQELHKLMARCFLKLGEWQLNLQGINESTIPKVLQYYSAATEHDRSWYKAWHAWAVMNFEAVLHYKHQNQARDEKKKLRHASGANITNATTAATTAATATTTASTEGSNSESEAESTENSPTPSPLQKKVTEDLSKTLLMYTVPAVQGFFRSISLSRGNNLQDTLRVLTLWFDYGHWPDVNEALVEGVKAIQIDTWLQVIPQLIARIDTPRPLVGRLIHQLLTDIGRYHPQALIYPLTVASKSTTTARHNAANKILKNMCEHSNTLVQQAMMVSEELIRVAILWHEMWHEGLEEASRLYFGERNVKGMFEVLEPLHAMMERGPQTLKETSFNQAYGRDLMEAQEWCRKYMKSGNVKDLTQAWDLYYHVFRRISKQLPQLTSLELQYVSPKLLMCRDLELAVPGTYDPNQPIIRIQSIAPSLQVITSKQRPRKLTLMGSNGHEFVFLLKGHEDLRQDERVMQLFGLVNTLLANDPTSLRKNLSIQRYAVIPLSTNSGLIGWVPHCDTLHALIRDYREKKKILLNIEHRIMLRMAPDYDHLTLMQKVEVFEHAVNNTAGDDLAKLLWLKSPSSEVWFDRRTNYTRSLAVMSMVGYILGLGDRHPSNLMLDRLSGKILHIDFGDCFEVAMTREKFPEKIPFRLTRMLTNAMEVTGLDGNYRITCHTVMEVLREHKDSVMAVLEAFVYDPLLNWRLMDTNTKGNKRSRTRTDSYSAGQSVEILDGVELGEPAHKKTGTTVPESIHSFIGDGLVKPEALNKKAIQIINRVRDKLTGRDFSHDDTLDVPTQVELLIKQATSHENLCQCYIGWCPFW
T1 sequence (P62942 whole entry): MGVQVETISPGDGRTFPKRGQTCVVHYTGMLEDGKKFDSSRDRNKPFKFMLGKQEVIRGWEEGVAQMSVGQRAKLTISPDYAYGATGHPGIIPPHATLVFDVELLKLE
From the text: Now we use a Terbium labeled anti-phosphorylated 4E--BP1 antibody to detect phosphorylation of the GFP-labeled substrate by mTOR. This TR-FRET based assay can be used to screen inhibitors of mTOR in vitro.
Materials: Assay buffer components: 1M HEPES pH7.5, GIBCO, Cat#15630: 1M MgCl2, Sigma, Cat# M1028: 0.5M EDTA, GIBCO, Cat# 15575: DTT, Sigma Cat# 43819: EGTA, Sigma Cat# E3889; Triton X100, Sigma, Cat# T8787: USA CALBIOCHEM Cat# 126575.
Enzyme, substrate and detection reagents: mTOR: Invitrogen, Cat# PV4753: GFP-4E-BPI: Invitrogen, Cat# PV4759: FKBP12: SinoBiological, Cat# 10268-H08E: ATP: Sigma Cat# A26209: Tb-anti-p4E-BP1: Invitrogen, Cat# PV4755: TR-FRET Dilution buffer Invitrogen, Cat# PV3574.
Plate: Compounds preparation plate: 384-well, Corning cat# 3657: Assay plate: black low volume 384 well microtiter plate (Greiner Bio-One, Cat# 784076).
Procedure: Compounds dosage gradient solution preparation:
Compounds were 3-fold serial diluted in 100% DMSO in a microtiter plate (Corning 3674) at 11 different concentrations in the range of 100 μM to 1.7 nM (100 μM, 33 μM, 11 μM, 3.7 μM, 1.2 μM, 411 nM, 137 nM, 46 nM, 15 nM, 5 nM, 1.7 nM). Then the diluted compounds in 100% DMSO was 10-fold diluted with ddH2O, so the compounds were in 10% DMSO.
0.5 μl diluted compounds in 10% DMSO was pipetted into a black low volume 384 well microtiter plate (Greiner Bio-One, Frickenhausen, Germany, cat# 784076): 2 μl of a solution of mTOR in aqueous assay buffer |50 mM HEPES/NaOH pH 7.5. mM MgCl12, 1.0 mM dithiothreitol, 1 mM EGTA, 0.01% (v/v) Triton-X100 (Sigma), 0.01% (w/v| bovine serum albumine (BSA)| (mTOR, 0.3125 ng/μl=>final cone, in the 5 μl assay volume is 0.125 ng/μl) were added to the assay plate and the compound-enzyme mixture was incubated for 15 min at 22° C. to allow pre-binding of the test compounds to the enzyme before the start of the kinase reaction:
The kinase reaction was started by the addition of 2.5 μl of a solution of ATP (ATP, […]=>final conc., in the 5 μl assay volume is 10 μM) and substrate (0.8 μM=>final conc. in the 5 μl assay volume is 0.4 μM) in assay buffer and the resulting mixture was incubated for 18 min at 22° C.
The reaction was stopped by the addition of 5 ul of 30 mM EDTA (EDTA, 30 mM=> final cone, in the 10 ∥l assay volume is 15 mM) and 4 nM Tb-chelate labeled anti-4E-BP1 |pT46| phosphospecific antibody |Invitrogen Cat# PV4755| (Tb-labeled antibody, 4 nM=>final conc. in the 10 μl assay volume is 2 nM) in TR-FRET dilution buffer, the resulting mixture was incubated 1 hour at 22° C. to allow the formation of complex of the phosphorylated substrate and the Tb-chelate labeled antibody.
The amount of phosphorylated substrate was evaluated by measurement of the resonance energy transfer from the Tb-chelate to the GFP. Therefore, the fluorescence emission at 495 nmn and 520 nm after excitation at 340 nm was measured on envision 2104 multilabel reader (Perkin-Elmer). The ratio of the emission at 520 nm and at 495 nm was taken as the measure for the amount of phosphorylated substrate. The data were normalised (enzyme reaction without inhibitor=0% inhibition, all other assay components but no enzyme=100% inhibition) and IC50 values were calculated by a 4 parameter fit (equation (1)) using IDBS XLfit software (ID Business Solutions Ltd., UK)
Y=Bottom+(TOP−Bottom)/(1+10̂((LogIC50−X)*hillslope)) equation (1)
In this equation, Y was the normalized % inhibition value. X was the log value of the test compound concentration. IC50 was the concentration of compound where half of maximal inhibition was achieved.

[2] = test system: HCT-116 human colon cancer; details: 9 mg/kg/day p.o., after 22 days treatment, compared to vehicle control
Procedure: Animals: Balb/c nude mice, female, 6-8 weeks, weighing approximately 18-20 g. A total of 70 will be needed for the study, which will be purchased from Vital River Laboratory Animal Technology Co. Ltd.
Tumor Inoculation: Each mouse will be inoculated subculaneously at the right flank with HCT-116 tumor cells (3×106) in 0.1 ml of PBS for tumor development. The treatments will be started when the tumor size reaches approximately ˜150 mm3.
Assignment to Groups: Before commencement of treatment, all animals will be weighed and the tumor volumes will be measured. […]
Endpoints: The major endpoint is to see if the tumor growth can be delayed or mice can be cured. Tumor sizes will be measured twice weekly in two dimensions using a caliper, and the volume will be expressed in mm3 using the formula: V=0.5 a×b2 where a and b are the long and short diameters of the tumor, respectively. […] T-C is calculated with T as the median time (in days) required for the treatment group tumors to reach a predetermined size (e.g., 500 mm3), and C is the median time (in days) for the control group tumors to reach the same size. […]
Statistical Analysis: for comparison between two groups, an independent sample t-test will be used. […] The potential synergistic effect between treatments will be analyzed by LSD or Dunnett's T3. All data will be analyzed using SPSS 17.0 software, p<0.05 is considered to be statistically significant.

Compound | IC50 [1] [nM] | tumor growth inhibition [2] [%]
CO[C@H]1C[C@@H]2CC[C@@H](C)[C@@](O)(O2)C(=O)C(=O)N2CCCC[C@H]2C(=O)O[C@H]([C@H](C)C[C@@H]2CC[C@@H](OCc3cn(C45CC6CC(CC(C6)C4)C5)nn3)[C@H](OC)C2)CC(=O)[C@H](C)/C=C(\C)[C@@H](O)[C@@H](OC)C(=O)[C@H](C)C[C@H](C)/C=C/C=C/C=C/1C [Compound A3] | > 10000 | –
CO[C@H]1C[C@@H]2CC[C@@H](C)[C@@](O)(O2)C(=O)C(=O)N2CCCC[C@H]2C(=O)O[C@H]([C@H](C)C[C@@H]2CC[C@@H](OCc3cn(-c4ccc(C(=O)O)cc4)nn3)[C@H](OC)C2)CC(=O)[C@H](C)/C=C(\C)[C@@H](O)[C@@H](OC)C(=O)[C@H](C)C[C@H](C)/C=C/C=C/C=C/1C [Compound A4] | 6600 | –
CO[C@H]1C[C@@H]2CC[C@@H](C)[C@@](O)(O2)C(=O)C(=O)N2CCCC[C@H]2C(=O)O[C@H]([C@H](C)C[C@@H]2CC[C@@H](OCc3c[nH]nn3)[C@H](OC)C2)CC(=O)[C@H](C)/C=C(\C)[C@@H](O)[C@@H](OC)C(=O)[C@H](C)C[C@H](C)/C=C/C=C/C=C/1C [Compound A6] | 9140 | –
COC1CC2CCC(C)C(O)(O2)C(=O)C(=O)N2CCCCC2C(=O)OC(C(C)CC2CCC(OCc3cn(CCO)nn3)C(OC)C2)CC(=O)C(C)C=C(C)C(O)C(OC)C(=O)C(C)CC(C)C=CC=CC=C1C (centres unmarked) [Compound A9] | > 10000 | –
CO[C@H]1C[C@@H]2CC[C@@H](C)[C@@](O)(O2)C(=O)C(=O)N2CCCC[C@H]2C(=O)O[C@H]([C@H](C)C[C@@H]2CC[C@@H](OCc3cn(CC(=O)O)nn3)[C@H](OC)C2)CC(=O)[C@H](C)/C=C(\C)[C@@H](O)[C@@H](OC)C(=O)[C@H](C)C[C@H](C)/C=C/C=C/C=C/1C [Compound A12] | > 10000 | –
CO[C@H]1C[C@@H]2CC[C@@H](C)[C@@](O)(O2)C(=O)C(=O)N2CCCC[C@H]2C(=O)O[C@H]([C@H](C)C[C@@H]2CC[C@@H](OCc3cn(-c4ccc(N5CCN(C)CC5)cc4)nn3)[C@H](OC)C2)CC(=O)[C@H](C)/C=C(\C)[C@@H](O)[C@@H](OC)C(=O)[C@H](C)C[C@H](C)/C=C/C=C/C=C/1C [Compound A13] | > 10000 | –
COC1CC2CCC(C)C(O)(O2)C(=O)C(=O)N2CCCCC2C(=O)OC(C(C)CC2CCC(OCc3cn(Cc4ccc(F)cc4)nn3)C(OC)C2)CC(=O)C(C)C=C(C)C(O)C(OC)C(=O)C(C)CC(C)C=CC=CC=C1C (centres unmarked) [Compound A14] | > 10000 | –
CO[C@H]1C[C@@H]2CC[C@@H](C)[C@@](O)(O2)C(=O)C(=O)N2CCCC[C@H]2C(=O)O[C@H]([C@H](C)C[C@@H]2CC[C@@H](OCCO)[C@H](OC)C2)CC(=O)[C@H](C)/C=C(\C)[C@@H](O)[C@@H](OC)C(=O)[C@H](C)C[C@H](C)/C=C/C=C/C=C/1C [Compound A15, reference compound] | 6.43 | 63
CO[C@H]1C[C@@H]2CC[C@@H](C)[C@@](O)(O2)C(=O)C(=O)N2CCCC[C@H]2C(=O)O[C@H]([C@H](C)C[C@@H]2CC[C@H](n3cc(CO)nn3)[C@H](OC)C2)CC(=O)[C@H](C)/C=C(\C)[C@@H](O)[C@@H](OC)C(=O)[C@H](C)C[C@H](C)/C=C/C=C/C=C/1C [Compound B2] | 18.4 | –
CO[C@H]1C[C@@H]2CC[C@@H](C)[C@@](O)(O2)C(=O)C(=O)N2CCCC[C@H]2C(=O)O[C@H]([C@H](C)C[C@@H]2CC[C@H](n3cc(-c4cccnc4)nn3)[C@H](OC)C2)CC(=O)[C@H](C)/C=C(\C)[C@@H](O)[C@@H](OC)C(=O)[C@H](C)C[C@H](C)/C=C/C=C/C=C/1C [Compound B9] | 27.2 | –
CO[C@H]1C[C@@H]2CC[C@@H](C)[C@@](O)(O2)C(=O)C(=O)N2CCCC[C@H]2C(=O)O[C@H]([C@H](C)C[C@@H]2CC[C@H](n3cc(-c4ccc(C(=O)O)cc4)nn3)[C@H](OC)C2)CC(=O)[C@H](C)/C=C(\C)[C@@H](O)[C@@H](OC)C(=O)[C@H](C)C[C@H](C)/C=C/C=C/C=C/1C [Compound B11] | 446 | –
CO[C@H]1C[C@@H]2CC[C@@H](C)[C@@](O)(O2)C(=O)C(=O)N2CCCC[C@H]2C(=O)O[C@H]([C@H](C)C[C@@H]2CC[C@H](n3cc(COc4ccc(S(N)(=O)=O)cc4)nn3)[C@H](OC)C2)CC(=O)[C@H](C)/C=C(\C)[C@@H](O)[C@@H](OC)C(=O)[C@H](C)C[C@H](C)/C=C/C=C/C=C/1C [Compound B12] | 35.2 | –
CO[C@H]1C[C@@H]2CC[C@@H](C)[C@@](O)(O2)C(=O)C(=O)N2CCCC[C@H]2C(=O)O[C@H]([C@H](C)C[C@@H]2CC[C@H](n3cc(-c4ccc(S(N)(=O)=O)cc4)nn3)[C@H](OC)C2)CC(=O)[C@H](C)/C=C(\C)[C@@H](O)[C@@H](OC)C(=O)[C@H](C)C[C@H](C)/C=C/C=C/C=C/1C [Compound B13] | 29 | –
